# In patent publication US20220105124A1, “METHODS FOR TARGETED TREATMENT AND PREDICTION OF PATIENT SURVIVAL IN CANCER” (University of Florida Research Foundation, Incorporated, priority 2019, published 2022):
# System: GBM cells with high VDR expression
# Test: Treating GBM cells with high VDR expression with vitamin D
# Format: cell-based
# Details: GBM cells with high VDR expression treated with vitamin D
# Text: The influence of vitamin D is also examined for its role the link between VDR (vitamin D receptor) and GBM prognosis. Addition of vitamin D is used to determine if vitamin D will direct VDR to a beneficial pro-immune function of liganded VDR. Removal of vitamin D is used to determine if vitamin D deficiency leads to harmful pro-tumor unliganded VDR signal.
substance,measurement,value
Vitamin D,Sox2 expression,"signal from VDR, leading to lower Sox2,"
same,VDR expression,unaffected.
same,abnormal signal from VDR,cells with vitamin D reduces this abnormal
